Measurements from US9555086B2, “Compositions and methods for inducing an immune response” (The Regents of the University of Michigan, priority 2010, dated 2017).
Entries after “also recorded” stand apart in the source; their conditions may differ. Each block holds one compound with its values, some of them ahead of it. Numbered stars: 1 amine (or outer) side, 2 acyl side, 3 side chain; on linkers, the order of the positions; unused ones are H or OH. Bridge positions count the residues as written; N and C are the ends. Square brackets hold non-standard residues; d marks the D form. Ends that are not written are not given here. Peptide text beside a SMILES is read from it. CO = O=C([*:1])[*:2]; Nlys = NCCCCNCC(=O)O

Key:
[1] = system: antioxidative signaling pathway; conditions: read-out: IC50 as activator of antioxidative signaling pathway; cited from earlier work
trypsin and chymotrypsin [2] = experiment: Trypsin/chymotrypsin stability assay
trypsin and chymotrypsin [3] = conditions: pH 8
[4] = system: Human fibroblast M1 cells; experiment: Nitric Oxide Assay in human fibroblast M1 cells; assay type: cell-based
Procedure: FIGS. 17A and 17B show dose-response experiments of NO production rate induced by cyclic analogs. Human M1 fibroblasts were incubated with different concentrations of the listed cyclic peptides, or with 50 μM of positive (65-79*0401) or negative (65−79*0402) control peptides. NO production rates were determined using the fluorescent probe 4,5-diaminofluorescein diacetate (DAF-2DA) (See Ling et al., Arthritis Res Ther 2007, 9, R5; Ling et al., J. J Immunol 2007, 179, 6359; Ling et al., Arthritis Rheum 2006, 54, 3423).
Nitric Oxide Assay. Human fibroblast M1 cells were plated at a density of 1×10^5 cells per well in 96-well plates the day prior to the Nitric Oxide assay. To determine the rate of NO production in fibroblast, cells were first loaded with 20 μM of the fluorescent NO probe 4,5-diaminofluorescein diacetate (DAF-2DA), incubated in the dark at 37° C. for 1 hour and washed in 100 μL of DMEM/phenol red-free medium. The fluorescence level was recorded every 5 minutes over a period of 500 minutes, using a Fusion αHT system (PerkinElmer Life Sciences) at an excitation wavelength of 488 nm and emission wavelength of 515 nm. The NO production rate is expressed as the mean±SEM fluorescence units per minute.

CD8+ and CD8− DC = experiment: Cytokine production by splenic DC subsets (Luminex); assay type: cell-based, mouse; conditions: CD11c+CD8− DCs; 50 μg/ml peptide
Procedure: Splenic CD8+ and CD8− DC were isolated from DBA/1 mice as above and cultured in 96-well plates over time in the presence or absence of ISL-positive (65-79*0401) or ISL-negative (65-79*0402) peptides (50 μg/ml). At various time points thereafter, supernatants were collected and assayed for cytokine content, using the Luminex platform.
DBA/1 splenic unfractionated CD11c+ DCs (CD11c+), or their purified CD11c+CD8+ DCs (CD8+) or CD11c+CD8− DCs (CD8−) subsets were cultured with the ISL 65-79*0401 or ISL-negative control 65-79*0402 or medium. Supernatants were collected at different time points and assayed for cytokine content using a Luminex platform.
To determine the rate of NO production, cells were loaded with 20 μM of the fluorescent NO probe 4,5-diaminofluorescein diacetate (DAF-2DA) and the fluorescence level was recorded every 5 minutes over a period of 500 minutes using a Fusion αHT system (PerkinElmer Life Sciences) at an excitation wavelength of 488 nm and emission wavelength of 515 nm. To determine IDO enzymatic activity, the generation of its product, kynurenine was measured (Takikawa et al. 1988. J Biol Chem 263:2041-2048.; herein incorporated by reference in its entirety). Cytokine concentrations were measured in cell culture supernatants using a Luminex platform (Millipore Corporation, Danvers, Mass.). In some experiments, cytokines were determined using ELISA (Quantikine®, R&D Systems, Minneapolis, Minn.) following the manufacture's instruction.

Th17 cells = experiment: ISL polarizing effect in vivo (CII in CFA immunization); parameters: species or system DBA/1 mice; conditions: 10 μg co-administered with CII in CFA, footpad; day 7
Procedure: (A) DBA/1 mice were immunized with CII in CFA in the presence of PBS, 65-79*0401 or 65-79*0402. On day 7, cells from draining lymph nodes were isolated, cultured for 6 hours with PMA, Ionomycin and Brefeldin A and then stained with anti-mouse CD4, IL17A and IFN-γ as above. On the left: Representative dot plots showing percentages of IL17A+ and IFN-γ+ cells obtained from gated CD4+ cells. On the right, bar graphs showing results as mean±SD of duplicate experiments. (B) DBA/1 and CII-TCR Tg mice were immunized as in (A). On day 7, splenic cells were isolated and cultured with the synthetic peptide CII260-267 (5 μg/ml). Supernatants were collected every 24 hours and assayed for IL-17 levels by ELISA.
Mice were injected subcutaneously in the footpad with 100 μg of chicken collagen type II (CII) (Chondrex, Inc, Redmond, Wash.) emulsified in CFA (4 mg/ml). The inoculums contained 10 μg of either ISL-positive 65-79*0401 or ISL-negative 65-79*0402 ligands in PBS, or an equal volume of PBS alone. Animals were sacrificed 7 days after immunization. For Th17 quantification studies, inguinal and popliteal lymph nodes were collected and single cell suspensions were prepared. Unfractionated lymph node cells were cultured with PMA, Ionomycin and Brefeldin A for 6 hours as above. Cells were stained with FITC anti-mouse CD4 or isotype controls, followed by fixation and permeabilization using a Cytofix-Cytoperm™ kit. After permeabilization, intracellular staining was performed using PE-conjugated anti-mouse IL17A and APC-conjugated anti-mouse IFN-γ and cells were analyzed by flow cytometry as above. To measure IL-17 production, splenocytes from mice immunized as above were stimulated in vitro with 5 μg of CII259-273 peptide. At different time points thereafter, supernatants were collected and assayed for IL-17 by ELISA as above.

Compound: C=C(C)CCOP(=O)(O)OP(=O)(O)O [IPP, Isopentenyl diphosphate]
IC50 [1]: 0.017 nM

stability towards trypsin/chymotrypsin degradation (HPLC) (trypsin and chymotrypsin [2]; 4 hours of incubation, 37° C., pH 8): completely stable
cleavage fragments in MS analysis (trypsin and chymotrypsin [2]; after trypsin/chymotrypsin incubation): no fragments were observed
Compound: C[C@H](NC(=O)CN1CCCCNC(=O)NCCCCN(C(=O)[C@@H](N)Cc2c[nH]c3ccccc23)CC(=O)N[C@@H](CCC(N)=O)C(=O)N[C@@H](CCCCN)C(=O)N[C@@H](CCCNC(=N)N)C1=O)C(N)=O [c(HS4-4)] (H-W[Nlys]QKR[Nlys]A-NH2; linker 2-6 via CO)

degradation by trypsin/chymotrypsin (HPLC) (trypsin and chymotrypsin [3]): degraded completely
Compound: H-KDLLEQRRAAVDTYC-NH2 [65-79*0404]

Compound: c(HS6-2): cyclic analog named only in b214; probably a misprint of c(HS2-4) (QRRAA; bridge (positions not given here) via CO; also: urea backbone cyclisation, places not given here)
potency in activating NO production (in words) [4]: potent analogs

Compound: H-Lys-Asp-Ile-Leu-Glu-Asp-Glu-Arg-Ala-Ala-Val-Asp-Thr-Tyr-Cys-NH2 (H-KDILEDERAAVDTYC-NH2) [65-79*0402, reference compound]
IL-6 production (CD8+ and CD8− DC): did not trigger any increased production; also recorded: did not trigger any cytokine production
Th17 abundance in draining lymph nodes (Th17 cells): no effect
